Measurements reported in patent US20250333733A1, “NOVEL TARGETS AGAINST OVARIAN CANCER” (UNIVERSITY OF PUERTO RICO, priority 2022, published 2025).

Experiments:
OVCAR3CIS cells [1] = assay: Western blot of apoptotic-related and cell-cycle related proteins; format: cell-based; conditions: vs NC-siRNA
Experimental: Cell pellets were lysed with complete lysis buffer and total protein concentration […]. Protein samples were separated by SDS-PAGE, blotted onto nitrocellulose membranes, blocked in either 5% non-fat dry milk (Bio-Rad) or 5% BSA (HyClone), and probed with the appropriate dilution of corresponding primary antibody. Membranes were rinsed and incubated with corresponding HRP-conjugated secondary antibody, followed by enhanced chemiluminescence and autoradiography.

SKOV3ip1CIS cells = assay: Colony formation assay after siRNA transfection; format: cell-based, human; conditions: SKOV3ip1CIS (FIG. 8B)
Experimental: (§1) SiRNA ON-TARGET plus SMARTpool (a mixture of 4 siRNA as a single tube) and a negative control siRNA (NC-siRNA) (Sigma-Aldrich) were used for transfection studies. CASC10, was targeted by using two siRNAs targeting different regions of the CASC10 RNA (e.g., CASC10-siRNA (1) and CASC10-siRNA (2)). OVCAR3CIS or SKOV3ip1CIS cells were seeded into 12-well plates at 3.0×10^4 cells/mL. The next day, siRNAs were mixed with HiPerfect transfection reagent (Qiagen, Valencia, CA) at a 1:2 ratio (SIRNA: HiPerfect) in serum and antibiotic-free Opti-MEM medium (Gibco) and added to the cells. After twenty-four hours the media was replaced by regular culture media, and cells were cultured and used for further experiments. To assess siRNA transfection efficiency, cells were collected 24 hours after siRNA transfection.
(§2) OVCAR3CIS cells (3.0×10^4 cells/mL) or SKOV3ip1CIS (3.0×10^4 cells/mL) were seeded into 12-well plates. Twenty-four hours later, cells were transfected with 100 nM (final concentration) of each siRNA. […] Colonies of at least 50 cells were counted using a light microscope (CKX41: Olympus, Center Valley, PA, USA) with a total magnification of 40x. […] Optical density (OD) was measured, and percentages of cell viability were calculated after blank OD subtraction. Untreated cells were assessed as 100% cell viability.

OVCAR3CIS = assay: Cell cycle progression by flow cytometry; format: cell-based; conditions: 48 hours post-transfection
Experimental: To assess cell cycle progression, OVCAR3CIS (3.0×10^4 cells/mL) or SKOV3ip1CIS (3.5×10^4 cells/mL) were seeded into 10 cm Petri dishes and transfected with NC-siRNA or CASC10-siRNA (2). Forty-eight hours later, attached cells were collected, washed in ice-cold PBS, fixed with 70% cold ethanol, and stored at 4° C. Cells were then washed with ice-cold PBS, resuspended in propidium iodide (PI)/RNase Staining Buffer, incubated in the dark for 15 minutes at room temperature, and then analyzed by flow cytometry in BD C6 Accuri (CA, USA). Accuri's software was used to determine the percentage of cells in each cell cycle phase.

SKOV3IP1CIS = assay: Matrigel transwell invasion assay; format: cell-based, human
Experimental: Cell invasion was measured using the Matrigel transwell method. OVCAR3CIS (3.0×10^4 cells/mL) or SKOVip1CIS (3.5×10^4 cells/mL) were seeded into 10 cm Petri dishes and transfected with siRNAs. Twenty-four hours later, serum-free matrigel (BD Biosciences CA, USA) was added onto the upper chambers of 24-well plates and incubated at 37° C. for polymerization. Transfected cells were collected and resuspended in serum-free and re-seeded onto the Matrigel-coated chambers. Medium containing 10% FBS was added to the lower area of the wells, and the plates incubated for 48 hours at 37° C. The medium was removed, and cells that invaded through the matrigel fixed and stained using ProtocolHema 3 Stain Set (Fisher Scientific MI, USA). Invaded cells were microscopically counted using a digital camera to capture images at a 20× resolution. The percentage of cell invasion was calculated using the NC-SIRNA condition as 100% cell invasion.

OVCAR3CIS cells [2] = assay: Colony formation assay after siRNA transfection; format: cell-based; conditions: single siRNA, vs NC-siRNA
Experimental: as §1
as §2, with “viability. […]” for “viability.”

CASC10 = assay: RT-qPCR of CASC10 expression after siRNA transfection in OVCAR3CIS cells; format: cell-based; conditions: vs NC-siRNA
Experimental: as §1
A custom-made 384-well plate containing pre-designed forward and reverse primers was purchased from Bio-Rad (CA, USA). Total RNA was isolated from OVCAR3 and OVCAR3CIS cells using the GenElute Mammalian Total RNA Mini Kit (Millipore-Sigma, MO, USA) following the manufacturer's instructions. […] Fold-changes and cycle threshold (Ct) values were calculated by the instrument's internal software relative to OVCAR3 cells and normalized to B-actin along with controls for gDNA, PCR reaction, RT reaction, and RNA quality.

Caspase-3 = Caspase-3 fluorometric activity in SKOV3ip1CIS cells; format: cell-based, human; conditions: 72 hours after transfection, vs NC-siRNA
Experimental: Caspase-3 activity was quantified using the Caspase-3/CPP32 Fluorometric Assay Kit (BioVision CA, USA) as per the manufacturer's instructions. OVCAR3CIS (3.0×10^4 cells/mL) or SKOV3ip1CIS (3.5×10^4 cells/mL) were seeded into 10 cm Petri dishes and transfected with NC-siRNA or CASC10-siRNA (2). Twenty-four hours later, the media was replaced by regular media, and seventy-two hours after transfection, cells were collected, pellets lysed, and total protein concentration determined. Equal amounts of protein were mixed with 2×Reaction Buffer and 1 mM DEVD-AFC substrate in a 96-well plate and incubated at 37° C. for 2.5 hours. Fluorescence intensity at 400 nm excitation and 505 nm emission was measured.

## CASC10-siRNA (2): siRNA targeting CASC10 RNA, SEQ ID NO 3 and 4: 5′ GACUCUUGGAUCCAAGUUU(dT)(dT) 3′ / 5′ AAACUUGGAUCCAAGAGUC(dT)(dT) 3′ (chain 1 GACUCUUGGAUCCAAGUUUNN; chain 2 AAACUUGGAUCCAAGAGUCNN; 3' dTdT overhangs, chemistry not fully specified)
OVCAR3CIS cells [1]
  Bcl-2 protein: strong reduction
  CDK4 protein: reduction
  Cyclin E1 protein: reduction
  cleaved Caspase-3 protein: significant increase
  cleaved Caspase-9 protein: significant increase
  cleaved PARP-1 protein: significant increase
  p27 protein levels: reduction
SKOV3ip1CIS cells
  reduction in the number of colonies: 86%
OVCAR3CIS
  cell cycle progression: cell cycle arrest in the G0/G1 to S phase
SKOV3IP1CIS
  reduction of invasion ability: 58%
OVCAR3CIS cells [2]
  reduction in the number of colonies: 54%
CASC10
  decrease of CASC10 expression: 57%
Caspase-3
  increase in caspase-3 activity: 4 fold
